Columns and labels:
Aβ40-Cu^2+ aggregates = biological target: T1, Aβ40-Cu^2+ aggregates (Homo sapiens, UniProt P05067); experiment: DLS, size reduction of Aβ40-Cu^2+ aggregates
T1 construct: purchased GL-Biochem (Shanghai)
Procedure: PBS buffer, Aβ40, chelator, Zn(NO3)2, and Cu(NO3)2 solutions were filtered through a […] PVDF syringe filter. 496 μM Aβ40 solution in 10 mM PBS (pH 7.4) and 2 mM Zn(NO3)2 solution were mixed to obtain 200 μM Aβ40-Zn^2+ (1:1 ratio) of a cloudy solution. Similarly, 2 mM Cu(NO3)2 solution was added to 496 μM Aβ40 in 10 mM PBS (pH 6.6). Aβ40-Zn^2+/Cu^2+ (10 μl) solution was transferred to Eppendorf tubes containing 10 mM PBS buffer (64 or 67 μl) followed by the addition of 3 and 6 eq of 2 mM nucleotide (6 or 3 μl) solution and incubation for 45 min at RT. The resulting mixture was incubated for another 30 min at RT and DLS data were then collected in a 70 μl disposable cuvette. The final sample concentrations were 25 μM Aβ40, 25 μM Zn^2+ or Cu^2+, and 150 or 75 μM nucleotide.
Monomeric Aβ40 was incubated with either Cu^2+ or Zn^2+ for 45 min to form a 1:1 peptide metal-ion complex. […] For the Aβ40-Zn^2+ particles the instrument readings indicated a different size distribution. […] We evaluated the capacity of the phosphorothioate analogues to dissolve Aβ40-Cu^2+ or Zn^2+ aggregates, as compared to EDTA and clioquinol known for their ability to dissolve Aβ-M^2+ aggregates (Ritchie et al., 2003; Huang et al., 1997). The reduction of dH of Aβ40-Cu^2+ aggregates by EDTA, clioquinol, or tested compounds was compared to the dH of Aβ-Cu^2+ aggregate itself (FIG. 5A). In addition, the efficacy of the chelators ATP-γ-S, ADP-β-S, APCPP-γ-S and GDP-β-S to resolubilize Aβ40-Cu^2+ and Aβ40-Zn^2+ is described in FIGS. 5B and 5C relative to EDTA and clioquinol. EDTA efficiency in reducing Aβ particle size is considered as 100%.

TNAP = biological target: T2, TNAP (Homo sapiens, UniProt P05186); experiment: Inhibition of TNAP; type: biochemical
T2 sequence (P05186 18-501): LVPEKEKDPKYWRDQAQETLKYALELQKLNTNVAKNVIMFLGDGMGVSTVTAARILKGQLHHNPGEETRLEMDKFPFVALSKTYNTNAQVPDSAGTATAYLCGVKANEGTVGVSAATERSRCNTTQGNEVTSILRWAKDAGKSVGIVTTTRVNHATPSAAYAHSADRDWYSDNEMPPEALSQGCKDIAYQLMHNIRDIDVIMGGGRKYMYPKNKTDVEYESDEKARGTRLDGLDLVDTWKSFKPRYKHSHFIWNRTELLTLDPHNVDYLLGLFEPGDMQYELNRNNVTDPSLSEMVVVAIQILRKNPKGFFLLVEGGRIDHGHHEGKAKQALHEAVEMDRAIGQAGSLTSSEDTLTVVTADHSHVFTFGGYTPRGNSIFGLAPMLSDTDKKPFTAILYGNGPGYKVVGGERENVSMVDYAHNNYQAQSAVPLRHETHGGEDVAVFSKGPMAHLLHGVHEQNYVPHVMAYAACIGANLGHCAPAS

[1] = Chemical stability (acid, base, air-oxidation) monitored by 31P-NMR; type: physicochemical; conditions: for stability: pD=1 as printed, two weeks
Procedure: In order to study and evaluate the chemical stability of adenosine-5′-tetrathio bisphosphonate and di-adenosine 5′,5″-tetrathiobisphosphonate to basic and acidic condition, as well as to air-oxidation, kinetic measurements were performed by monitoring the changes in the percentage of these amalogues, using ^31P-NMR (FIGS. 16-18).
The evaluation of the stability of adenosine-5′-tetrathio bisphosphonate by ^31P-NMR was first conducted at pD=1.5 for four days. In the course of the experiment, new signals emerged in ^31P-NMR spectra at 104.4, 92.3, 89.2, 86.1, 67.8 ppm and the percentage of starting material was obtained from the ratio of integration between the starting material and the total peaks in the spectrum.
Next, we studied the stability of adenosine-5′-tetrathio bisphosphonate under basic conditions, pD=11. […] After two weeks, the ^31P-NMR spectrum was identical to the starting material, without any indication of decomposition. We associate this with the repulsion between the negative charges of the tetrathio-bisphosphonate moiety in adenosine-5′-tetrathio bisphosphonate and OH^− ions. In addition, intramolecular nucleophilic attack and formation of disulfide bond are less likely to occur under these conditions.
Furthermore, we tested the stability of adenosine-5′-tetrathio bisphosphonate under air-oxidizing conditions, by performing ^31P-NMR measurements in an open rotating NMR tube. […] The MS and ^31P-NMR analysis of the freeze-dried sample of adenosine-5′-tetrathio bisphosphonate after 3 days indicated the formation of an intramolecularly oxidized product.

human NPP3 = biological target: T3, human NPP3 (Homo sapiens, UniProt O14638); experiment: Hydrolysis by human NPP3; type: in vitro ADME; conditions: 100 μM, 1 h, compared to ATP
T3 construct: made in house; host or cells: COS-7 cells (transfected; protein extract / cell lysate)
T3 sequence (O14638 1-875): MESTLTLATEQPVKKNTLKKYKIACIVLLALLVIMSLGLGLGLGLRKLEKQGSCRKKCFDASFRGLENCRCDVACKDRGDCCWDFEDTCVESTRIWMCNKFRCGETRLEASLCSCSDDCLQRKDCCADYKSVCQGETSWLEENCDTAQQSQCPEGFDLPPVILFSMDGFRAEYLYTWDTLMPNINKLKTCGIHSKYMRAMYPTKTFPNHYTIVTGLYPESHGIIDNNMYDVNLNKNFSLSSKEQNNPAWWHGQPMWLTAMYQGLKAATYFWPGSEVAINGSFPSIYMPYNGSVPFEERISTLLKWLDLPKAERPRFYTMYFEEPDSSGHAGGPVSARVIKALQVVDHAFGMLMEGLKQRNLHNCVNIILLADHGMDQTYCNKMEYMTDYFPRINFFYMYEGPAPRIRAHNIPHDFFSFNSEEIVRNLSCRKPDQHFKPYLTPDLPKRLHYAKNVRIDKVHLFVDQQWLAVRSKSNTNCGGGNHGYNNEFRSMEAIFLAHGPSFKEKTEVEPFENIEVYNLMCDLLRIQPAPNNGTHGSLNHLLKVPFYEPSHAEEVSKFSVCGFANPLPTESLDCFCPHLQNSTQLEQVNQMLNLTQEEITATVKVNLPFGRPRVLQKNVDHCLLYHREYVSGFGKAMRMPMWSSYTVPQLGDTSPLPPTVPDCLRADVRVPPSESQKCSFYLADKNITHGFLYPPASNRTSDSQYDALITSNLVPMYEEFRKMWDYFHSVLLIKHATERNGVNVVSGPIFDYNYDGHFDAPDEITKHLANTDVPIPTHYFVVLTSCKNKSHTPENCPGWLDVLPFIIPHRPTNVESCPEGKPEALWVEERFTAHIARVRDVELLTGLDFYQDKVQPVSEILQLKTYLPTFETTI

T1 sequence (P05067 672-711 limits assumed): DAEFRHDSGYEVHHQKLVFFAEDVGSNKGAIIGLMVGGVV

Compound: Nc1ncnc2c1ncn2[C@@H]1O[C@H](COP(=O)(O)CP(=O)(O)OP(O)(O)=S)[C@@H](O)[C@H]1O [APCPP-γ-S, adenosine 5′-[Pγ-thio]-α,β-methylenetriphosphate]
- dH (particle size) of Aβ40-Cu^2+ after chelator (Aβ40-Cu^2+ aggregates; aggregate alone 1836 nm, 25 μM Aβ40-Cu^2+, pH 6.6): 64 nm
- inhibition at 100 µM (TNAP): 8%

Compound: Nc1ncnc2c1ncn2[C@@H]1O[C@H](COP(O)(=S)OP(=O)(O)C(Cl)(Cl)P(=O)(O)O)[C@@H](O)[C@H]1O (single isomer, unassigned; isomer a) [APPCCl2P-α-S (isomer A), adenosine 5′-[Pα-thio]-β,γ-(dichloromethylene)triphosphate]
- inhibition of TNAP (TNAP; 100 μM): 17%

Compound: di-adenosine-5′,5″-tetrathiobisphosphonate
- stability under air-oxidizing conditions ([1]; open NMR tube, 3 days): highly stable
- stability [1]: identical to that of adenosine 5′-tetrathiobisphosphonate

Compound: Nc1ncnc2c1ncn2[C@@H]1O[C@H](COP(O)(=S)OP(=O)(O)CP(=O)(O)O)[C@@H](O)[C@H]1O (single isomer, unassigned; isomer a) [APPCP-α-S (isomer A), adenosine 5′-[Pα-thio]-β,γ-methylenetriphosphate]
- Hydrolysis by NPP3 (human NPP3): ~1%

Compound: adenosine-5′-tetrathiobisphosphonate
- stability [1]: completely stable even after two weeks
- stability under basic conditions ([1]; pD=11, two weeks): highly stable

Compound: Nc1ncnc2c1ncn2[C@@H]1O[C@H](COP(=O)(O)OP(O)(O)=S)[C@@H](O)[C@H]1O [ADP-β-S, adenosine 5′-[β-thio]diphosphate, reference compound]
- fold better than GDP-β-S in reducing dH of Aβ40-Cu^2+ aggregates (Aβ40-Cu^2+ aggregates): 5.4 fold

Compound: Nc1ncnc2c1ncn2[C@@H]1O[C@H](COP(O)(=S)OP(=O)(O)CP(=O)(O)O)[C@@H](O)[C@H]1O (single isomer, unassigned; isomer b) [APPCP-α-S (isomer B), adenosine 5′-[Pα-thio]-β,γ-methylenetriphosphate]
- Hydrolysis by NPP3 (human NPP3): ~4%

From patent US20140378408A1, “NUCLEOSIDE 5'-PHOSPHOROTHIOATE ANALOGUES AND USES THEREOF” (BAR-ILAN UNIVERSITY, an Israeli University, priority 2012, published 2014)
